Source: patent US20240329063A1, “METHOD FOR EVALUATING RESIDUAL PLATELET THROMBOTIC POTENTIAL IN PATIENTS UNDERGOING ANTIPLATELET TREATMENT” (Centro Cardiologico Monzino S.P.A., priority 2021, published 2024)

Assays:
aGPIIbIIIa [1] = assay: ADP-induced aGPIIbIIIa expression (PAC1 binding) on platelets, flow cytometry, in vitro antagonist inhibition curves; type: cell-based, human; settings: ADP-stimulated platelets, spread as % CV, FIG. 1D-F
Method: (§1) The data obtained in patients without clopidogrel (No clopido) (n=39) are shown for comparison purposes. Panels C, D and E show the ADP concentration-response curves (black squares) and AR-C69931MX antagonist inhibition curves (white triangles) relating to TF, aGPIIbIIIa and P-selectin respectively. The EC50 of the agonist was calculated with a four-parameter logistic model, while the pA2s of the antagonist were calculated as described in Materials and Methods. The results are presented as percentage expression of the protein compared with baseline (s/b). The experiments were conducted at least three times. **p<0.01, ***p<0.001.
(§2) For the analysis of intracellular expression of TF, the cells were fixed for 2 hours with 1% paraformaldehyde, permeabilised for 10 min with an 0.1% solution of Triton X-100 PBS, and labelled for 15 min at room temperature in the dark with saturating concentrations of anti-TF and CD61 antibodies (PerCP; Becton Dickinson). […] All the data were analysed with Kaluza analysis software v1.5 (Beckman Coulter) and reported as percentage of positive cells or MFI (mean fluorescence intensity) of platelets positive to the activation marker.
(§3) A p-value of 0.05 was considered statistically significant. […] All curves shown are generated by informatics methods.

P-selectin [2] = assay: ADP-induced P-selectin expression on platelets, flow cytometry, in vitro antagonist inhibition curves; type: cell-based, human
Method: as §1, §2, §3

TF [3] = assay: ADP-induced TF expression on platelets, flow cytometry, in vitro antagonist inhibition curves; type: cell-based, human; settings: ADP-stimulated platelets, spread as % CV, FIG. 1D-F
Method: as §1, §2, §3

TF [4] = settings: clopidogrel 75 mg/day, FIG. 1A
Method: (§4) The in vitro experiments were conducted on 10 healthy volunteers (n=5 males and n=5 females; average age 39±6) who had not taken antiplatelet medicaments in the 10 days before the blood sample was taken. The effect of clopidogrel on TF expression was evaluated on 193 patients suffering from coronary artery disease (CAD) with myocardial infarction with non-ST elevation. […] The clinical characteristics of the patients enrolled are set out in Table 1.
(§5) The exclusion criteria were: age >80 years, valvular heart disease, atrial fibrillation, thyrotoxicosis, history of haemorrhagic diathesis, platelet disorder or thrombocytopenia, anticoagulant or thrombolytic treatment. A subject with severe congenital P2Y12 deficiency (person) was also studied.
(§6) Whole blood (WB) samples were taken with a 19 gauge needle without venous stasis in tubes containing sodium citrate (0.129 M, 1/10 volume/volume) (Vacutainer, Becton Dickinson), discarding the first 4 ml. The blood samples were then processed within 15 minutes of sample-drawing. The WB was centrifuged (room temperature, without centrifuge brake) at 100 g for 10 minutes to isolate the platelets. The platelet-rich plasma (PRP) was transferred to a new test tube and analysed with the Sysmex XE-2100 Automated Hematology Analyzer to determine the platelet count, mean platelet volume (MPV), platelet distribution […] (PDW), platelet recovery (defined as the percentage of the platelet count in the PRP to 100% of the number of platelets in the WB), and leukocyte contamination. Only the platelet preparations free of leukocyte contamination and with platelet recovery >70% were used for the subsequent thrombin generation analysis.
(§7) Surface expression of platelet activation markers was analysed by flow cytometry as previously described (Brambilla M, et al., Arterioscler Thromb Vasc Biol. 2008;28 (5): 947-953). Briefly, the samples were incubated/labelled with saturating concentrations of mouse monoclonal antibodies recognizing human tissue factor (HTF1; Thermo Fisher), P-selectin (APC; Becton Dickinson), PAC1 (FITC; Becton Dickinson), CD36 (PE; Becton Dickinson) and CD154 (FITC; Becton Dickinson). For the analysis of intracellular expression of TF, the cells were fixed for 2 hours with 1% paraformaldehyde, permeabilised for 10 min with an 0.1% solution of Triton X-100 PBS, and labelled for 15 min at room temperature in the dark with saturating concentrations of anti-TF and CD61 antibodies (PerCP; Becton Dickinson).

aGPIIbIIIa [5] = settings: clopidogrel 75 mg/day; 10 μM ADP; FIG. 1B
Method: as §4, §5, §6, §7

P-selectin [6] = settings: clopidogrel 75 mg/day; 10 μM ADP; all CAD patients, to the same extent regardless of the degree of VASP phosphorylation; FIG. 1C
Method: as §4, §5, §6, §7

SMILES	pA2 for inhibition of aGPIIbIIIa expression (aGPIIbIIIa [1])	pA2 for inhibition of P-selectin expression (P-selectin [2]; ADP-stimulated platelets, spread as % CV, FIG. 1D-F)	power (pA2) to inhibit P-selectin expression relative to that required to inhibit TF (P-selectin [2]; P-selectin versus TF)	power (pA2) to inhibit P-selectin expression relative to that required to inhibit aGPIIbIIIa (P-selectin [2]; P-selectin versus aGPIIbIIIa)	pA2 for inhibition of TF expression (TF [3])	inhibition of TF exposed to stimulation with 10 μM ADP, poor responders versus good responders (TF [4]; patients with PRI >60% compared with PRI <60%)	inhibition of TF exposed to stimulation with 10 μM ADP, poor responders versus untreated subjects (TF [4]; patients with PRI >60% compared with subjects not treated with clopidogrel)	expression of activated glycoprotein IIbIIIa measured by the PAC1 bond (aGPIIbIIIa [5])	P-selectin expression (P-selectin [6])
CSCCNc1nc(SCCC(F)(F)F)nc2c1ncn2[C@@H]1O[C@H](COP(=O)(O)OP(=O)(O)C(Cl)(Cl)P(=O)(O)O)[C@@H](O)[C@H]1O [AR-C69931MX]	10.7±0.29	11.5±3.1	150 times	6 times	9.33±2.1	–	–	–	–
COC(=O)[C@H](c1ccccc1Cl)N1CCc2sccc2C1 [clopidogrel]	–	–	–	–	–	significantly less than that measured in the good responders	not statistically different from that measured in the subjects not treated with clopidogrel	highest in the poor responders	significantly inhibited
